Reference: patent publication US20060166996A1, “Phthalazine derivatives as phosphodiesterase 4 inhibitors” (Zambon Group S.P.A., priority 2002, published 2006)
Converted amounts (≈) assume the structure as drawn. Values belong to the compound of their own block, whether it stands above or below them.

Legend:
PDE 4 enzyme = system: T1, PDE 4 enzyme; experiment: PDE 4 enzyme inhibition (SPA); format: biochemical; conditions: for % at 10^−7: PDE 4 from U937 cell line
T1 construct: % at 10^−7; other: at 10^−7; PDE 4 from U937 cell line; other: PDE 4 isolated from U937 cell line; SPA with 3H-cAMP
Protocol: a) PDE 4 Enzyme Purification
PDE 4 enzyme was isolated from U937 cell line according to the method of Nielson et al. (J. Allergy Clin. Immunol. 1990, vol. 86, pages 801-807) partially modified for the FPLC technique (Fast Protein Liquid Chromatography).
U-937cell line (Istituto Zooprofilattico Sperimentale, Brescia, Italy) was maintained in RPMI 1640, with 10% foetal calf serum and 2 mM glutamine, at a cell density between 1×10^6 and 8×10^6 cells per ml in an incubator at 37° C. with 5% CO2.
U937 suspension was homogenised in a buffer containing 10 mM TRIS (tri-(hydroxymethyl)-aminomethane), 5 mM MgCl2, 4 mM EGTA (ethyleneglycol-bis-(β-aminoethylether)-N,N,N′N′-tetra-acetic acid), 5 mM […]-mercaptoethanol, 1 μM leupeptin, 1 μM pepstatin, 1% TRITON x-100, and 100 μM phenylmethyl sulfonyl fluoride (PMSF) at pH 7.8.
The homogenate was centrifuged and the supernatant was used for the purification of the PDE 4 enzyme; it was seeded on a column connected to a biologic chromatography system (FPLC, BIO RAD).
PDE 4 enzyme was eluted with a linear gradient, from 0.05 M to 1 M of sodium acetate, and elution fractions were collected for PDE4 activity assay.
The fractions containing PDE4 activity were collected and, after an overnight dialysis against water to remove sodium acetate, were concentrated to 30% volume with an Amicon filtration system (using YM10 membrane filter).
Ethylene glycol (30% v/v) was added and the sample was stored at −20° C. in a single aliquot until the use.
PDE 4 activity assay was performed using Scintillation Proximity Assay (SPA) Amershan kit consisting of tracer ^3H-cAMP, PDE assay buffer (10×solution: 500 mM TRIS/HCl pH 7.5, 83 mM MgCl2 and 17 mM EGTA) and Yttrium SPA PDE beads (containing 18 mM zinc sulphate).
The radioactivity of the beads was measured using a scintillation counter (Packard model MINAXI β TRI-CARB 4000 SERIES).
The IC50 values were calculated from concentration-inhibition curves by non linear regression analysis using the program ORIGIN 3.5 (MICROCAL SOFTWARE INC.) and each fitting was the mean±SEM of 3 experiments using different PDE 4 preparations.

[1] = Solubility test by HPLC in PBS pH 7.4; format: physicochemical; conditions: for solubility kinetic: PBS (phosphate buffer saline), aqueous buffer, kinetic from dmso stock
Protocol: HPLC method used to test the solubility.
Solubility test was performed by HPLC analysis (column 4.6×15 mm) water/0.1% TFA —CH3CN/0.06% TFA gradient) against standard.
A […] solution of the substance dissolved in DMSO was prepared.
In order to prepare the sample 190 μl of PBS (Phosphate Buffer Saline, pH 7.4) were added to 10 μl of the above solution; instead (while) in order to prepare the standard 190 μl of DMSO to other 10 μl of solution were added.

[2] = PBS pH 7.4, HPLC against standard, compounds of formula I
[3] = PBS pH 7.4, HPLC, compounds of WO 00/05218

Compound: 5-[4-(3,5-dichloro-pyridin-4-ylmethyl)-7-methoxy-phthalazin-1-yl]-2-methoxy-benzoic Acid [Compound 4]
- Sol. [1, 3]: 37 µM

Compound: COc1ccc2c(Cc3c(Cl)cncc3Cl)nnc(-c3cc(C(=O)O)cc([N+](=O)[O-])c3)c2c1 [Compound 3, 3-[4-(3,5-dichloro-pyridin-4-ylmethyl)-7-methoxy-phthalazin-1-yl]-5-nitro-benzoic Acid]
- % at 10^−7 (PDE 4 enzyme): 47% at 10^−7
- solubility kinetic [1, 2]: 298 µg/mL (≈ 614 µM)
- Sol. [1, 2]: 614.43 µM

Compound: 3-[4-(3,5-dichloro-pyridin-4-ylmethyl)-7-methoxy-phthalazin-1-yl]-5-methanesulfonylamino-benzoic Acid [Compound 6]
- Sol. [1, 3]: <1 µM

Compound: COc1ccc2c(Cc3c(Cl)cncc3Cl)nnc(-c3cc(NS(C)(=O)=O)cc(C(=O)O)c3)c2c1 [Compound 6, 3-[4-(3,5-dichloro-pyridin-4-ylmethyl)-7-methoxy-phthalazin-1-yl]-5-methanesulfonylamino-benzoic Acid]
- solubility kinetic [1, 2]: 271 µg/mL (≈ 508 µM)
- Sol. [1, 2]: 508.44 µM

Compound: COc1ccc2c(Cc3c(Cl)cncc3Cl)nnc(-c3nc(C(=O)O)co3)c2c1 [Compound 9, 2-[4-(3,5-dichloro-pyridin-4-ylmethyl)-7-methoxy-phthalazin-1-yl]-oxazole-4-carboxylic Acid]
- % at 10^−7 (PDE 4 enzyme): 14% at 10^−7
- solubility kinetic [1, 2]: 202 µg/mL (≈ 468 µM)
- Sol. [1, 2]: 468.68 µM

The remaining lines, values ahead:

- % at 10^−7 (PDE 4 enzyme): 25% at 10^−7
- solubility kinetic [1, 2]: 218 µg/mL (≈ 495 µM)
- Sol. [1, 2]: 495.45 µM
Compound: COc1ccc2c(Cc3c(Cl)cncc3Cl)nnc(-c3ccc(C(=O)O)cc3)c2c1 [Compound 1, 4-[4-(3,5-dichloro-pyridin-4-ylmethyl)-7-methoxy-phthalazin-1-yl]-benzoic Acid]

- solubility kinetic [1, 2]: 226 µg/mL (≈ 481 µM)
- Sol. [1, 2]: 480.85 µM
Compound: COc1ccc2c(Cc3c(Cl)cncc3Cl)nnc(-c3ccc(OC)c(C(=O)O)c3)c2c1 [Compound 4, 5-[4-(3,5-dichloro-pyridin-4-ylmethyl)-7-methoxy-phthalazin-1-yl]-2-methoxy-benzoic Acid]

- IC50 (PDE 4 enzyme; PDE 4 isolated from U937 cell line, SPA with 3H-cAMP): 91.3 nM
- solubility kinetic [1, 2]: 230 µg/mL (≈ 489 µM)
- Sol. [1, 2]: 489.36 µM
Compound: COc1ccc2c(Cc3c(Cl)cncc3Cl)nnc(-c3cc(C(=O)O)ccc3OC)c2c1 [Compound 5, 3-[4-(3,5-dichloro-pyridin-4-ylmethyl)-7-methoxy-phthalazin-1-yl]-4-methoxy-benzoic Acid]

- solubility kinetic [1, 2]: 235 µg/mL (≈ 500 µM)
- Sol. [1, 2]: 500.00 µM
Compound: COc1cc(C(=O)O)cc(-c2nnc(Cc3c(Cl)cncc3Cl)c3ccc(OC)cc23)c1 [Compound 7, 3-[4-(3,5-dichloro-pyridin-4-ylmethyl)-7-methoxy-phthalazin-1-yl]-5-methoxy-benzoic Acid]
